# Read-outs that look alike come from different tables or passages of the source.
# Key:
# [1] = Absorption after oral administration of buserelin composition (blood buserelin level, direct method); format: in vivo, cynomolgus monkeys; conditions: calcium carbonate carrier, enteric capsules; for level at 2 h / level at 2.5 h: cynomolgus monkey, blood, po; for level at 2 h: 120 min after oral dose; for level at 2.5 h: 150 min after oral dose
# Text: The particle diameter of calcium carbonate as the carrier was 40 to 45 µm.
# [2] = Absorption after oral administration of PTH (1-34) composition with diclofenac (blood PTH (1-34) level, ELISA); format: in vivo, cynomolgus monkeys; conditions: 10 mg diclofenac added to PTH (1-34)/magnesium oxide composition
# Text: (§1) Then, the resultant mixture was filled in enteric coating capsules.
# [3] = set-up: species or system cynomolgus monkeys; conditions: cynomolgus monkey, in vivo
# Text: as §1
# [4] = cynomolgus monkey, in vivo
# Protocol: Both components were mixed to make a composition in which the PTH (1-34) content was 600 µg/200 mg, and the resultant mixture was filled in enteric coating capsules.
# The particle diameter of calcium carbonate, AW ceramics, and magnesium oxide used as the carrier was 40 to 45 µm.
# A single oral dose of the above-mentioned composition was administered to two cynomolgus monkeys weighing 5 kg. Their blood samples were collected before dosing, and at 30, 60, 90, 120, 180, 240, 300, and 360 minutes after dosing to determine the blood PTH (1-34) level by using ELISA with a 1-34PTH2 antibody.
compound,measurement,setting,value
"CCNC(=O)[C@@H]1CCCN1C(=O)[C@H](CCCNC(=N)N)NC(=O)[C@H](CC(C)C)NC(=O)[C@@H](COC(C)(C)C)NC(=O)[C@H](Cc1ccc(O)cc1)NC(=O)[C@H](CO)NC(=O)[C@H](Cc1c[nH]c2ccccc12)NC(=O)[C@H](Cc1cnc[nH]1)NC(=O)[C@@H]1CCC(=O)N1 [buserelin, Buserelin]",Blood buserelin level,"[1]; 30 min after oral dose, Animal No. 1",30 or less pg/ml
same,Blood buserelin level,"[1]; 30 min after oral dose, Animal No. 2",30 or less pg/ml
same,Blood buserelin level,"[1]; 30 min after oral dose, Animal No. 3",30 or less pg/ml
same,Blood buserelin level,"[1]; 45 min after oral dose, Animal No. 1",30 or less pg/ml
same,Blood buserelin level,"[1]; 45 min after oral dose, Animal No. 2",30 or less pg/ml
same,Blood buserelin level,"[1]; 45 min after oral dose, Animal No. 3",30 or less pg/ml
same,Blood buserelin level,"[1]; 60 min after oral dose, Animal No. 1",30 or less pg/ml
same,Blood buserelin level,"[1]; 60 min after oral dose, Animal No. 2",30 or less pg/ml
same,Blood buserelin level,"[1]; 60 min after oral dose, Animal No. 3",30 or less pg/ml
same,Blood buserelin level,"[1]; Before dosing, Animal No. 1, oral",30 or less pg/ml
same,Blood buserelin level,"[1]; Before dosing, Animal No. 2, oral",30 or less pg/ml
same,Blood buserelin level,"[1]; Before dosing, Animal No. 3, oral",30 or less pg/ml
same,level at 2 h,[1]; Animal No. 1,0.066 ng/mL
same,level at 2 h,[1]; Animal No. 2,0.107 ng/mL
same,level at 2 h,[1]; Animal No. 3,0.053 ng/mL
same,level at 2.5 h,[1]; Animal No. 1,0.081 ng/mL
same,level at 2.5 h,[1]; Animal No. 2,0.193 ng/mL
same,level at 2.5 h,[1]; Animal No. 3,0.07 ng/mL
same,absorption after oral administration (in words),[1],well absorbed
O=C(O)Cc1ccccc1Nc1c(Cl)cccc1Cl [diclofenac],effect of addition on absorption of PTH (1-34) (in words),[2],enhanced its absorption
PTH (1-34),absorption after oral administration (in words),[3],well absorbed
same,absorption after oral administration (in words),[4],well absorbed

# Reference: patent publication EP0943336A1, “PEPTIDE-CONTAINING PHARMACEUTICAL COMPOSITIONS FOR ORAL ADMINISTRATION” (DOTT RESEARCH LABORATORY, priority 1996, dated 1999)
